From PubChem BioAssay (NCI)
Several values for one entry are separate records, joined by “and”; a condition that tells them apart may be missing. Equal values may be shown once.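 Where inhibition never reached the appropriate level, the endpoint shown equals the highest concentration tested. Otherwise, values were interpolated linearly from a five-concentration, 48-hour dose response in 96-well plates. The concentration for 50% growth inhibition is given as GI50. TGI denotes the concentration required for complete inhibition of growth.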

Experiments:
Test in all cases: growth of human tumour cells (NCI), 48 h
[1] = system: 786-0 renal
[2] = system: HL-60(TB) leukemia
[3] = system: K-562 leukemia
[4] = system: MALME-3M melanoma
[5] = system: SN12C renal
[6] = system: KM12 colon
[7] = system: HCT-116 colon
[8] = system: U251 CNS
[9] = system: LOX IMVI melanoma
[10] = system: T-47D breast

Structure (SMILES) | GI50 [1] [µM] | TGI [1] [µM] | GI50 [2] | TGI [2] [µM] | GI50 [3] [µM] | GI50 [4] [µM] | TGI [4] [µM] | GI50 [5] [µM] | TGI [5] [µM] | GI50 [6] [µM] | TGI [6] [µM] | GI50 [7] [µM] | TGI [7] [µM] | GI50 [8] [µM] | TGI [8] [µM] | GI50 [9] [µM] | TGI [9] [µM] | GI50 [10] [µM] | TGI [10] [µM] | TGI [3] [µM]
COc1ccc2c(c1)C(=O)/C(=C/c1ncc([N+](=O)[O-])n1C)O2 | 1.51 | 5.07 | 0.263 µM | 1.37 | 0.245 | 0.288 | 1.07 | 0.292 | 1.3 | 0.279 | 0.973 | 0.176 | 0.48 | 0.772 | 2.84 | 0.179 | 0.481 | 4.2 | > 100 | 
O=c1[nH]cnc2[nH]ncc12 | 400 | > 5000 | > 79.9 µM and 108 µM | > 3420 | 179 | 1330 | > 5000 | 485 | > 5000 | 1250 | > 5000 | 444 | > 5000 | 1560 | > 4470 | 142 | > 5000 | 698 | > 5000 | > 5000
COc1cc(/C=C2\CN(C)C/C(=C\c3cc(CN4CCCCC4)c(O)c(OC)c3)C2=O)cc(CN2CCCCC2)c1O | 3.92 | 14.5 | 2.8 µM | 7.47 | 3.12 | 5.62 | 19.6 | 3.24 | 12.8 | 2.17 | 4.97 | 2.5 | 8 | 3.1 | 13.2 | 2.34 | 6.19 | 5.72 | 24 | 35.2
COC(=O)C1(F)C(=O)NC(=O)NC1O (stereo not drawn) |  | > 100 |  | > 100 |  |  | > 100 |  | > 100 |  | > 100 |  | > 100 |  | > 100 |  | > 100 |  | > 100 | > 100
COc1ccc(/C=C/C(=O)Oc2cc(O)cc(O)c2)cc1 |  | > 100 |  | 55.5 |  |  | > 100 |  | > 100 |  | 28.4 |  | 39.5 |  | > 100 |  | 41.1 |  | > 100 | > 100
CO[C@@H]1/C=C(C)/C=C/[C@@H](C)/C=C(\C)C(=O)OC(/C(C)=C/C=C(\C)CNC(=O)[C@H](CO)NC=O)[C@@H](C)/C=C/C=C/[C@H](OC)CC/C=C(C)/C=C/C1 (stereo partly drawn) | < 0.005 | 0.322 | < 0.005 µM | > 50 | < 0.005 | 0.0101 | 0.0261 | 0.182 | 12.2 | < 0.005 | 8 | < 0.005 | 6.11 | < 0.005 | 0.214 | < 0.005 | < 0.005 | 0.0243 | 16.8 | 0.238
C/C(=N\N=C(/[Se])N1CC2CCC(CC2)C1)c1ccccn1 |  | 2.52 |  | 0.489 |  |  | 0.567 |  | 2.57 |  | 1.54 |  | 0.878 |  | 1.51 |  | 0.64 |  | 3.05 | 0.575
O=C(N/N=C/c1ccc([N+](=O)[O-])cc1)c1ccc2nc(-c3ccc(Cl)cc3)[nH]c2c1 | 3.92 | 15.7 | 0.797 µM | 5.73 | 0.499 | 1.48 | 5 | 3.14 | 18.1 | 3.43 | 13 | 2.25 | 6.9 | 2.91 | 10.8 | 1.34 | 3.22 | 2.29 | 7.21 | 8.44
CC(C)NC(=O)OCc1c(COC(=O)NC(C)C)c(-c2ccc(Cl)cc2)n2c1CCC2 | 2.75 | 8.68 | 0.79 µM | 9.21 | 2.65 | 2.36 | 9.69 | 2.29 | 15.4 | 11 | 25.9 | 3.54 | 17.5 | 2.88 | 35.2 | 2.4 | 13.6 | 3.9 | 20.9 | > 26.1
O=C(O)c1cc2cc(OCc3ccccc3)c(OCc3ccccc3)cc2[nH]1 | 22.7 | 48.4 | 22.9 µM | > 100 | 29.3 | 25.9 | 72.6 | 33.1 | > 100 | 19.3 | 36.2 | 17.1 | 30.8 | 17.7 | 37 | 18.1 | 35.4 | 23.9 | > 100 | > 100
O=C(c1ccco1)c1c(C(F)(F)F)n([O-])c2ccccc2[n+]1=O | 0.42 | 1.83 | 0.175 µM | 1.42 | 0.207 | 1.68 | 8.02 | 0.618 | 3.1 | 0.911 | 8.18 | 0.434 | 8.52 | 0.719 | 18.2 | 0.548 | 2.1 | 1.97 | 29.7 | 3.43
NC1=NC(c2ccc(Cl)cc2)C2=C(N1)/C(=C/c1ccc(Cl)cc1)CCC2 (stereo not drawn) | 9.42 | 29.7 | 12.3 µM | 45.8 | 6.92 | 19.4 | 50.8 | 17.3 | 50.4 | 2.32 | 5.27 | 1.67 | 3.22 | 3.38 | 12.2 | 1.85 | 3.64 | 11.6 | > 100 | > 87.8
C=C1C(=O)O[C@H]2[C@H]1CC/C(COC(=O)CSCC(=O)OC/C1=C/CC[C@@]3(C)O[C@H]3[C@H]3OC(=O)C(=C)[C@@H]3CC1)=C\CC[C@@]1(C)O[C@@H]21 | 1.5 | 3.22 | 0.432 µM | 2.07 | 0.636 | 1.24 | 2.8 | 1.6 | 3.54 | 2.59 | 8.75 | 0.466 | 1.59 | 3.19 | 11.3 | 1.58 | 3.1 | 2.16 | 5.72 | 4.06
CN1CCN(Cc2ccc(NC(=O)c3ccc(C#Cc4c(N)ncc5ccc(F)cc45)cc3)cc2C(F)(F)F)CC1 | 0.924 | 1.73 | 0.935 µM | 2.62 | 0.677 | 0.945 | 1.8 | 0.913 | 1.78 | 0.733 | 1.52 |  |  | 0.851 | 1.59 | 0.929 | 1.69 | 0.878 | 1.85 | 1.87
O=C(Nc1ccccc1O)c1ccc(Oc2cccc(C(=O)Nc3ccccc3O)c2)cc1 | 2.84 | 12.2 | 1.37 µM | 10.4 | 0.819 | 1.48 | 14 | 2.84 | 17.9 | 3.17 | 11.9 | 2.84 | 10.4 | 2.13 | 8.16 | 2.24 | 12.2 | 3.13 | 10.1 | > 100
COc1ccc(C(=O)c2cc3c(OC)c(OC)c(OC)cc3[nH]2)cc1 | 11.9 | > 100 | 2.24 µM | 61.8 | 1.1 | 5.8 | > 100 | 5.21 | > 100 | 2.36 | > 100 | 3.22 | > 100 | 5.2 | > 100 | 4.91 | > 100 | 4.53 | > 100 | > 100
O=C(O)c1cc(N=Cc2ccccc2O)cc(C(=O)O)c1 |  | > 100 |  | > 100 |  |  | > 100 |  | > 100 |  | > 100 |  | > 100 |  | > 100 |  | > 100 |  | > 100 | > 100
COc1cccc2c1C(=O)c1c(O)c3c(c(O)c1C2=O)C[C@@](O)(C(=O)CO)C[C@@H]3OC1C[C@H](N)[C@H](O)[C@H](C)O1 (stereo partly drawn) | 0.0324 | 1.19 | 0.078 µM | 0.593 | 0.089 | 0.0462 | 0.145 | 0.0253 | 7.44 | 0.135 | 6.27 | 0.036 | 0.212 | 0.025 | 2.25 | 0.0178 | 0.181 | 0.0409 | 1.06 | 3.18
S=C1Nc2ccc(Cl)cc2C2(c3ccccc3)N3CCN=C3NN12 (stereo not drawn) | 38.3 | > 100 | 22.7 µM | 53 | 24.9 | 23.5 | 78.4 | 35.3 | > 100 | 52.1 | > 100 | 29.4 | > 100 | 35.1 | > 100 | 17.6 | 36.2 | 30.8 | 99 | 66.1
c1cn2cc(-c3ccc4cn[nH]c4c3)nc(Nc3ccc(N4CCOCC4)cc3)c2n1 | 14.9 | 32 | > 100 µM | > 100 | > 100 | 10.4 | 27.3 | 17 | 41.2 | 0.479 | 59 | 10.1 | 23.3 | 10 | 21.6 | 17.8 | > 100 | 12 | 30.9 | > 100
CCN1c2ccccc2C(Cl)(c2ccc(N(C)C)cc2)c2ccccc21 | 10.7 | 22.7 | 1.89 µM | 4.7 | 3.1 | 3.33 | 12.4 | 4.88 | 19.2 | 4.41 | 15.6 | 2.66 | 10.3 | 3.69 | 17.4 | 3.67 | 13.6 | 4.22 | 64.2 | 25.7
COc1cccc(/C=C/c2cnc3ccccc3n2)c1OC |  | > 100 |  | > 100 |  |  | > 100 |  | > 100 |  | > 100 |  | > 100 |  | > 100 |  | > 100 |  | 82.9 | > 100
C=CC1CC12C(=O)C1OC2(C)C2C(=O)c3c(O)ccc(O)c3C(=O)C12 (stereo not drawn) | 1.94 | 4.27 | 1.19 µM | 3.79 | 2.48 | 1.46 | 4.76 | 3.2 | 11.6 | 5.83 | 17.3 | 4.66 | 9.03 | 4.3 | 12.6 | 2.35 | 10.6 | 2.56 | 14.1 | 6.95
O=C(CCl)N1c2ccccc2Sc2ccc3ccccc3c21 | 1.44 | 3.03 | 1.07 µM | 5.13 | 0.659 | 0.352 | 1.32 | 1.59 | 2.98 | 1.82 | 3.35 | 0.652 | 2.06 | 1.55 | 2.95 | 0.143 | 0.299 | 1.66 | 3.69 | 3.49
COC(=O)[C@]12CC[C@@H](C)[C@H](C)[C@@H]1C1=CC[C@@H]3[C@@]4(C)C=C(O)C(=O)[C@@]5(C)COC(=C54)C[C@@]3(C)[C@]1(C)CC2 | 13.9 | 29.7 | 4.17 µM | 19.9 | 3.12 | 15 | 32.4 |  |  | 11.9 | 29.4 | 9.49 | 22.9 | 12.6 | 30.7 | 8.85 | 22.4 | 3.66 | 20.7 | 13.8
O=c1cc(-c2ccccc2)[nH]n1-c1nc2ccccc2[nH]1 | 4.8 | 46.6 | 4.52 µM | 29.1 | 3.94 | 17.7 | > 100 | 6.84 | > 100 | 5.28 | > 100 | 3.12 | > 100 |  |  | 4.61 | 28.1 | 4.41 | > 100 | > 100
